Results: US9775844B2, “Heterocyclic compounds and uses thereof” (Infinity Pharmaceuticals, Inc., priority 2014, dated 2017)

Legend:
PI3K α = PI3K α (Homo sapiens (Human), UniProt P42336); assay: PI3-Kinase Promega ADP-Glo Max assay; type: biochemical
PI3K β = PI3K β (Homo sapiens (Human), UniProt P42338); assay: PI3-Kinase Promega ADP-Glo Max assay; type: biochemical
PI3K δ = PI3K δ (Homo sapiens (Human), UniProt O00329); assay: PI3-Kinase Promega ADP-Glo Max assay; type: biochemical
PI3K γ = PI3K γ (Homo sapiens (Human), UniProt P48736); assay: PI3-Kinase Promega ADP-Glo Max assay; type: biochemical
PI3K-δ in RAJI cells = PI3K-δ in RAJI cells (Homo sapiens (Human), UniProt O00329); assay: RAJI p110 δ assay (PI3K-δ selective cellular assay, phospho-AKT); type: cell-based; conditions: phospho-AKT; read-out: RAJI p110 δ assay IC50
[1] = biological target: PI3K-γ in RAW264.7 macrophages (Mus musculus (Mouse), UniProt Q9JHG7); assay: Raw264.7 p110 γ assay (PI3K-γ selective cellular assay, C5a-stimulated phospho-AKT); type: cell-based; conditions: for IC50: phospho-AKT, read-out: Raw264.7 p110 γ assay IC50
Sequence of PI3K-γ in RAW264.7 macrophages (Q9JHG7 whole entry): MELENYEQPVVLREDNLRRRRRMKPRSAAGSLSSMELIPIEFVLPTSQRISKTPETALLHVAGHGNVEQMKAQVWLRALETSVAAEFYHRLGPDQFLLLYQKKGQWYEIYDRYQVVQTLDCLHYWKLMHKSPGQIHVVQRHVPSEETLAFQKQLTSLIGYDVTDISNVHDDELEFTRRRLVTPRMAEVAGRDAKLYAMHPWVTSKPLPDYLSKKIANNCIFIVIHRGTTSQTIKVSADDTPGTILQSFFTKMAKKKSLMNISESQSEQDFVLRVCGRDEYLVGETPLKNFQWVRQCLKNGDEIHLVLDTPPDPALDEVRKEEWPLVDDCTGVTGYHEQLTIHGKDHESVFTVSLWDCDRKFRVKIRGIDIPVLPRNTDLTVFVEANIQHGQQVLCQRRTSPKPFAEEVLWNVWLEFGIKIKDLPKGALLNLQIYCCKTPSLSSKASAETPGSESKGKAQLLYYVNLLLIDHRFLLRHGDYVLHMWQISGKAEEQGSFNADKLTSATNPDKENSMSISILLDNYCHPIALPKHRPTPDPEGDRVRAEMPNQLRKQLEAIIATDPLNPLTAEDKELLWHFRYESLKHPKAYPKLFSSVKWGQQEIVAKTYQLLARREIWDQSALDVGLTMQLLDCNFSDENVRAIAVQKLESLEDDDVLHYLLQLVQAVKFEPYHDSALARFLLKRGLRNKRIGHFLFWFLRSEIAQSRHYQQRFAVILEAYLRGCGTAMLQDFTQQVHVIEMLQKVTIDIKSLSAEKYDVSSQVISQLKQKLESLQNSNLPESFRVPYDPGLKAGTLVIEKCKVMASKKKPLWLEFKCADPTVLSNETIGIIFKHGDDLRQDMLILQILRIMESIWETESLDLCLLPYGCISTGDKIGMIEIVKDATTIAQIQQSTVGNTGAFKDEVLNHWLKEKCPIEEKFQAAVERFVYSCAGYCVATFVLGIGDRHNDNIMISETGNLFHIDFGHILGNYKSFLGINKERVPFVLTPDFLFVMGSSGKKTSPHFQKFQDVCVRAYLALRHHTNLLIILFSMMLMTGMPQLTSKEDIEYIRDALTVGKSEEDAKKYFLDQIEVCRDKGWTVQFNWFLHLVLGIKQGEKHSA

Sequence of PI3K α (P42336 whole entry): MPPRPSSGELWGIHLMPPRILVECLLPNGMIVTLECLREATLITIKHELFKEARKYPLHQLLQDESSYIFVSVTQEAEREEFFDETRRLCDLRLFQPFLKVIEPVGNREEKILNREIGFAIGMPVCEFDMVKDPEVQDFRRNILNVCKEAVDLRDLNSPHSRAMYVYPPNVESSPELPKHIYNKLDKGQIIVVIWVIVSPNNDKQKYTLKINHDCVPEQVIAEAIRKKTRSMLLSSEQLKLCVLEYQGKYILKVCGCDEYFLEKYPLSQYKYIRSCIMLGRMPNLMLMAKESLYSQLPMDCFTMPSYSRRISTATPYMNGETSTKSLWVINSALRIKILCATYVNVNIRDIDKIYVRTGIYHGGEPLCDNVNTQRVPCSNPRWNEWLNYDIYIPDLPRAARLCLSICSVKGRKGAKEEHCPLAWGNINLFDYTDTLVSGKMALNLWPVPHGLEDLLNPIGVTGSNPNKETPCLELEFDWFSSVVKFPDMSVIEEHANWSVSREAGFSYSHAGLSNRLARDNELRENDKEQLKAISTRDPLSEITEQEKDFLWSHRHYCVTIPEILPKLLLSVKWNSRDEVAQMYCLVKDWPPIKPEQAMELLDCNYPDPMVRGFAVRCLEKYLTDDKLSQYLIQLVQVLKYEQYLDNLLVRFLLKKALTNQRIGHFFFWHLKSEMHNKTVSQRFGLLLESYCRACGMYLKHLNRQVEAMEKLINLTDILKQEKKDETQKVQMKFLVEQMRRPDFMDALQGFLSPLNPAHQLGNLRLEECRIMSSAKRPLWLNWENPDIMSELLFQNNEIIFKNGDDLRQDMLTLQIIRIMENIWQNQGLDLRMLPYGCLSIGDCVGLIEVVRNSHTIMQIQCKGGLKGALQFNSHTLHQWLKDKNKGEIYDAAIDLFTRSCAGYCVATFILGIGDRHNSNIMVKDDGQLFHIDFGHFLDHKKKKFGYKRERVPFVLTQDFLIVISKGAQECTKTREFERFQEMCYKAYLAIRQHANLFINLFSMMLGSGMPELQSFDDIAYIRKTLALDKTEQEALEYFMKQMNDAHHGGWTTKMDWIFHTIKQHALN
Sequence of PI3K α (P27986 whole entry partner): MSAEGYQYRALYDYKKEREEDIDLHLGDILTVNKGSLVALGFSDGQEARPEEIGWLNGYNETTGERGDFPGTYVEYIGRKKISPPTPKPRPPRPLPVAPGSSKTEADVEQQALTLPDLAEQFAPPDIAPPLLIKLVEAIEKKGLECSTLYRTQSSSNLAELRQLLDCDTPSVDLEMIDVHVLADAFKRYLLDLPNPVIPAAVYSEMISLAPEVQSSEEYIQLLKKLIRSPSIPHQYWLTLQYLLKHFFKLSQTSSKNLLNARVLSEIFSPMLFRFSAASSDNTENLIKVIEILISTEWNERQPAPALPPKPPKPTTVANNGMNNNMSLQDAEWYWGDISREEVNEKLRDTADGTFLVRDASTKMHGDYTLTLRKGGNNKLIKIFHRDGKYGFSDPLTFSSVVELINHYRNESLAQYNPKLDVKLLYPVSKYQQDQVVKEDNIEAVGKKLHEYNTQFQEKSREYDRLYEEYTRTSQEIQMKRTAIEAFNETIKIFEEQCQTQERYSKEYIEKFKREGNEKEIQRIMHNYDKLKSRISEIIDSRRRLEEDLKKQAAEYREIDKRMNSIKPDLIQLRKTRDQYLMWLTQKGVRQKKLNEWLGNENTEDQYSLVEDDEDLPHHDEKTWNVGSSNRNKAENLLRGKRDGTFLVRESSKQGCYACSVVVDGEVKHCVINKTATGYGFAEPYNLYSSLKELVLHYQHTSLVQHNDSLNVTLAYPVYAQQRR
Sequence of PI3K γ (P48736 whole entry): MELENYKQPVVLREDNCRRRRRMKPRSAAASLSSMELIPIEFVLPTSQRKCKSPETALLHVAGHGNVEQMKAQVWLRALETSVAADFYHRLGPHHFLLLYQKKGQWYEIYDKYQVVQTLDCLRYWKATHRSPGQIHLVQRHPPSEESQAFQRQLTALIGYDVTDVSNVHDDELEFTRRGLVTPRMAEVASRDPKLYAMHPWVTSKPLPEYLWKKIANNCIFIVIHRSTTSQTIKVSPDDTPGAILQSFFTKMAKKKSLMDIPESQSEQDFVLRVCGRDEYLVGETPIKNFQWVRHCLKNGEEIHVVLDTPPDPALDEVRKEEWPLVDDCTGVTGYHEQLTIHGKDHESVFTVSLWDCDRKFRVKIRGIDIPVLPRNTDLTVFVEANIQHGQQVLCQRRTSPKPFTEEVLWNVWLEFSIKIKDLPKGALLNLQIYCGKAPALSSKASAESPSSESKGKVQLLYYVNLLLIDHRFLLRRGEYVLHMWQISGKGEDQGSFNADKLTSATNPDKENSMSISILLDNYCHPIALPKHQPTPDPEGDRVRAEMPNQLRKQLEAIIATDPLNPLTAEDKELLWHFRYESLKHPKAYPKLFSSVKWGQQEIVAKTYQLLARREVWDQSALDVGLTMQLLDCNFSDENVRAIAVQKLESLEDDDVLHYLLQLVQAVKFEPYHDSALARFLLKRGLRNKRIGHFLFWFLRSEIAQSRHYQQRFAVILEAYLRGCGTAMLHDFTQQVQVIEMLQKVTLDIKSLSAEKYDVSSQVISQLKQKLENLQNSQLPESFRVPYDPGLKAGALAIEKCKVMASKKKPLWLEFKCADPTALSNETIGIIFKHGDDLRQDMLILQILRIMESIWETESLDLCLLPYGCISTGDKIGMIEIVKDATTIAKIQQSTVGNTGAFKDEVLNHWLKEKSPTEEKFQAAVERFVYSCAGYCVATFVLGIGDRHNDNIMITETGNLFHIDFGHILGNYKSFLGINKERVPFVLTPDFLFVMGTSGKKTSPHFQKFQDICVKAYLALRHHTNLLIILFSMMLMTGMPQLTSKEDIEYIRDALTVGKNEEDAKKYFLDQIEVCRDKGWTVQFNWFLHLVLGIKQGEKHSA
Sequence of PI3K-δ in RAJI cells (O00329 whole entry): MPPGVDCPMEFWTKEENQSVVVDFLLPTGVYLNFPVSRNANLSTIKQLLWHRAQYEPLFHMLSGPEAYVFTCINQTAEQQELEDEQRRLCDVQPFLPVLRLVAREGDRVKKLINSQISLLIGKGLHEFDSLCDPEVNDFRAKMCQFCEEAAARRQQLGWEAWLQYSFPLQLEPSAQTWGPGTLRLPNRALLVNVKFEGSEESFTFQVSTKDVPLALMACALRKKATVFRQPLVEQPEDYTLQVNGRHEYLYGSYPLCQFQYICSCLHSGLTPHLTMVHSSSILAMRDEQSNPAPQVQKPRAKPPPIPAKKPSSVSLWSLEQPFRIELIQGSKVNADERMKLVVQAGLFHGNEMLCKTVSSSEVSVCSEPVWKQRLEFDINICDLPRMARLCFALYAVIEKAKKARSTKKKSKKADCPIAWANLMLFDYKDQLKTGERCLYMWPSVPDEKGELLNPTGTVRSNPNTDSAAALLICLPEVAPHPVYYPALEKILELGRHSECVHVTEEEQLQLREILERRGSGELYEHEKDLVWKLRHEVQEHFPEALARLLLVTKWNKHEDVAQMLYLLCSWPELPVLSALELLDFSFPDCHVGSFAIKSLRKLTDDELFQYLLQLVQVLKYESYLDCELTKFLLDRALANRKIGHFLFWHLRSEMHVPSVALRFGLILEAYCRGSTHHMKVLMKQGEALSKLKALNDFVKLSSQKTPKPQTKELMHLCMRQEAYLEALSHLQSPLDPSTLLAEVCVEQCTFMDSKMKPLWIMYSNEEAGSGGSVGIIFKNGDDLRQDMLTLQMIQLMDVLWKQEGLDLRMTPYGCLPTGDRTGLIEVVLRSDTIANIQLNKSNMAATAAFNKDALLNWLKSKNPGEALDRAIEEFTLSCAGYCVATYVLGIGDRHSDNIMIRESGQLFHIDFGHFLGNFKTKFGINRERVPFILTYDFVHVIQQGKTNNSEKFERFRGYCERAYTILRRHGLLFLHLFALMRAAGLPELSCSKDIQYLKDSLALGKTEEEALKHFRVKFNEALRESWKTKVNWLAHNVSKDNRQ
Sequence of PI3K-δ in RAJI cells (P27986 whole entry partner): as the sequence (P27986 whole entry partner) above

SMILES | IC50 (PI3K α) [µM] | IC50 (PI3K β) [µM] | IC50 (PI3K δ) [µM] | IC50 (PI3K γ) [µM] | PI3K δ/PI3K γ IC50 (selectivity) (PI3K γ) | IC50 (PI3K-δ in RAJI cells) [µM] | RAJIδ/Raw264.7 γ IC50 (selectivity) [1] | IC50 [1] [µM]
C#Cc1cccc2nc([C@H](C)NC(=O)c3c(N)nn4cccnc34)n(-c3ccccc3)c(=O)c12 [Compound 46] | 5 to 10 | 1 to 5 | 1 to 5 | 0.001 to 0.1 | Y (Y = 50 to <850) | 0.001 to 0.1 | W (W = >1 to <10) | 0.001 to 0.05
C[C@H](NC(=O)c1c(N)nn2cccnc12)c1cc2cccc(CC(=O)c3cnn(C)c3)c2c(=O)n1-c1ccccc1 [Compound 91] | 5 to 10 | 5 to 10 | 5 to 10 | 0.5 to 1 | W (W = >1 to <10) | 0.1 to 0.5 | W (W = >1 to <10) | 0.1 to 10
C#Cc1cccc2nc([C@H](C)NC(=O)c3c(N)nn4cccnc34)n(-c3ccc(F)c(F)c3)c(=O)c12 [Compound 45] | 5 to 10 | 5 to 10 | 5 to 10 | 0.1 to 0.5 | Y (Y = 50 to <850) | 0.1 to 0.5 | W (W = >1 to <10) | 0.001 to 0.05
CC(C)C#Cc1cccc2cc([C@H](C)NC(=O)c3c(N)nn4cccnc34)n(-c3ccccc3)c(=O)c12 [Compound 2] | 5 to 10 | 5 to 10 | 5 to 10 | 0.5 to 1 | X (X = 10 to <50) | 0.5 to 1 | Y (Y = 50 to <850) | 0.001 to 0.05
C[C@H](NC(=O)c1c(N)nn2cccnc12)c1cc2cccc(N)c2c(=O)n1-c1ccccc1 [Compound 109, (S)-2-amino-N-(1-(8-amino-1-oxo-2-phenyl-1,2-dihydroisoquinolin-3-yl)ethyl)pyrazolo[1,5-a]pyrimidine-3-carboxamide] | 5 to 10 | 1 to 5 | 1 to 5 | 0.001 to 0.1 | X (X = 10 to <50) | – | – | –
C[C@H](NC(=O)c1c(N)nn2cccnc12)c1cc2ccc3ccccc3c2c(=O)n1-c1ccccc1 [Compound 89] | 5 to 10 | 5 to 10 | 5 to 10 | 0.5 to 1 | X (X = 10 to <50) | 1 to 10 | Y (Y = 50 to <850) | 0.001 to 0.05
CC#Cc1cccc2cc(C(C)NC(=O)c3c(N)nn4cccnc34)c(-c3ccccc3)nc12 (stereo not drawn) [Compound 51] | 5 to 10 | 1 to 5 | 1 to 5 | 0.1 to 0.5 | W (W = >1 to <10) | 0.001 to 0.1 | W (W = >1 to <10) | 0.001 to 0.05
COc1cnc(C(=O)N[C@@H](C)c2cc3cccc(C#Cc4cnn(C)c4)c3c(=O)n2-c2ccccc2)c(N)n1 [Compound 71] | 5 to 10 | 5 to 10 | 5 to 10 | > 5 | V (V = 0.1 to 1) | 1 to 10 | – | –
C[C@H](NC(=O)c1c(N)nn2cccnc12)c1cc2cccc(/C=C/c3ccccc3)c2c(=O)n1-c1ccccc1 [Compound 87] | 5 to 10 | 5 to 10 | 5 to 10 | > 5 | V (V = 0.1 to 1) | – | – | –
C[C@H](NC(=O)c1c(N)nn2cccnc12)c1cc2cccc(C#Cc3cnn(C)c3)c2c(=O)n1C1CC1 [Compound 25] | 1 to 5 | 1 to 5 | 5 to 10 | – | – | 0.1 to 0.5 | – | 0.001 to 0.05
C[C@H](NC(=O)c1c(N)nn2cccnc12)c1cc2cccc(C#Cc3ccc(=O)[nH]c3)c2c(=O)n1-c1ccccc1 [Compound 33] | – | – | – | – | – | – | – | 0.001 to 0.05
C[C@H](NC(=O)c1c(N)nn2cccnc12)c1nc2cccc(C#Cc3cnn(C)c3)c2c(=O)n1-c1ccccc1 [Compound 21] | 5 to 10 | 5 to 10 | 5 to 10 | – | – | 0.1 to 0.5 | – | –
C#Cc1cccc2nc([C@H](C)NC(=O)c3nccnc3N)n(-c3ccccc3)c(=O)c12 [Compound 47] | 1 to 5 | 0.001 to 0.5 | 0.001 to 0.5 | 0.001 to 0.1 | V (V = 0.1 to 1) | – | – | –
Cc1nnc(C#Cc2cccc3cc([C@H](C)NC(=O)c4c(N)nn5cccnc45)n(-c4ccccc4)c(=O)c23)s1 [Compound 86] | 5 to 10 | 1 to 5 | 1 to 5 | 0.1 to 0.5 | X (X = 10 to <50) | – | – | –
Cc1ccnc2c(C(=O)N[C@@H](C)c3cc4cccc(C#Cc5cnn(C)c5)c4c(=O)n3-c3ccccc3)c(N)nn12 [Compound 102] | 5 to 10 | 5 to 10 | 5 to 10 | 0.1 to 0.5 | X (X = 10 to <50) | – | – | –
Cc1cc(C)n2nc(N)c(C(=O)N[C@@H](C)c3cc4cccc(C#Cc5cnn(C)c5)c4c(=O)n3-c3ccccc3)c2n1 [Compound 108] | 5 to 10 | 5 to 10 | 5 to 10 | 0.1 to 0.5 | X (X = 10 to <50) | – | – | –
Cc1ccn2nc(N)c(C(=O)N[C@@H](C)c3cc4cccc(C#Cc5cnn(C)c5)c4c(=O)n3-c3ccccc3)c2n1 [Compound 106] | 5 to 10 | 1 to 5 | 5 to 10 | 0.001 to 0.1 | Y (Y = 50 to <850) | – | – | –
Cn1cc(C#Cc2cccc3cc(CNC(=O)c4c(N)nn5cccnc45)n(-c4ccccc4)c(=O)c23)cn1 [Compound 107] | 5 to 10 | 5 to 10 | 5 to 10 | 1 to 5 | X (X = 10 to <50) | – | – | –
C[C@H](NC(=O)c1cncc2cccnc12)c1cc2cccc(C#Cc3cnn(C)c3)c2c(=O)n1-c1ccccc1 [Compound 42] | – | – | – | – | – | – | – | 0.001 to 0.05
C[C@H](NC(=O)c1c(N)nn2cccnc12)c1cc2cccc(C#CC3CCN(C)CC3)c2c(=O)n1-c1ccccc1 [Compound 85] | 5 to 10 | 5 to 10 | 5 to 10 | 0.5 to 1 | X (X = 10 to <50) | – | – | –

Now from value to compound:

IC50 (PI3K α) [µM] | IC50 (PI3K β) [µM] | IC50 (PI3K δ) [µM] | IC50 (PI3K γ) [µM] | PI3K δ/PI3K γ IC50 (selectivity) (PI3K γ) | IC50 (PI3K-δ in RAJI cells) [µM] | RAJIδ/Raw264.7 γ IC50 (selectivity) [1] | IC50 [1] [µM] | SMILES
5 to 10 | 5 to 10 | 5 to 10 | 1 to 5 | X (X = 10 to <50) | – | – | – | C[C@H](NC(=O)c1c(N)nn2cccnc12)c1cc2cccc(C#Cc3cnn(C)c3)c2c(=O)n1C1CCCCC1 [Compound 99]
1 to 5 | 1 to 5 | 5 to 10 | 0.001 to 0.1 | Y (Y = 50 to <850) | – | – | – | CNS(=O)(=O)CCn1c([C@H](C)NC(=O)c2c(N)nn3cccnc23)cc2cccc(C#Cc3cnn(C)c3)c2c1=O [Compound 100]
1 to 5 | 5 to 10 | 5 to 10 | 0.001 to 0.1 | Y (Y = 50 to <850) | – | – | – | C[C@H](NC(=O)c1c(N)nn2cccnc12)c1cc2cccc(C#Cc3cnn(C)c3)c2c(=O)n1-c1ccc(F)cc1 [Compound 96]
1 to 5 | 5 to 10 | 5 to 10 | 0.001 to 0.1 | Y (Y = 50 to <850) | – | – | – | CC[C@H](NC(=O)c1c(N)nn2cccnc12)c1cc2cccc(C#Cc3cnn(C)c3)c2c(=O)n1-c1ccccc1 [Compound 105]
5 to 10 | 5 to 10 | 5 to 10 | 0.1 to 0.5 | X (X = 10 to <50) | – | – | – | Cc1ccc(-n2c([C@H](C)NC(=O)c3c(N)nn4cccnc34)cc3cccc(C#Cc4cnn(C)c4)c3c2=O)cc1 [Compound 98]
5 to 10 | 5 to 10 | 5 to 10 | 0.001 to 0.1 | Y (Y = 50 to <850) | – | – | – | Cc1ccccc1-n1c([C@H](C)NC(=O)c2c(N)nn3cccnc23)cc2cccc(C#Cc3cnn(C)c3)c2c1=O [Compound 101]
1 to 5 | 0.5 to 1 | 5 to 10 | 0.1 to 0.5 | X (X = 10 to <50) | – | – | – | C[C@H](NC(=O)c1c(N)nn2cccnc12)c1cc2cccc(C#Cc3cnn(C)c3)c2c(=O)n1C [Compound 94]
5 to 10 | 5 to 10 | 5 to 10 | 0.001 to 0.1 | Y (Y = 50 to <850) | – | – | – | C[C@H](NC(=O)c1c(N)nn2cccnc12)c1cc2cccc(C#Cc3cnn(C)c3)c2c(=O)n1-c1cccc(F)c1 [Compound 93]
5 to 10 | 5 to 10 | 5 to 10 | 0.5 to 1 | X (X = 10 to <50) | – | – | – | CC(C)n1c([C@H](C)NC(=O)c2c(N)nn3cccnc23)cc2cccc(C#Cc3cnn(C)c3)c2c1=O [Compound 103]
– | – | – | – | – | – | – | 0.05 to 0.1 | C[C@H](NC(=O)c1c(N)nn2cccnc12)c1cc2cccc(C#Cc3cnn(C)c3)c2c(=O)[nH]1 [Compound 44]
5 to 10 | 5 to 10 | 5 to 10 | 0.1 to 0.5 | X (X = 10 to <50) | – | – | – | C[C@H](NC(=O)c1c(N)nn2cccnc12)c1cc2cccc(C#Cc3cnn(C)c3)c2c(=O)n1-c1ccc(F)c(F)c1 [Compound 97]
5 to 10 | 5 to 10 | 5 to 10 | 0.1 to 0.5 | X (X = 10 to <50) | – | – | – | Cc1cccc(-n2c([C@H](C)NC(=O)c3c(N)nn4cccnc34)cc3cccc(C#Cc4cnn(C)c4)c3c2=O)c1 [Compound 95]
1 to 5 | 1 to 5 | 5 to 10 | 0.001 to 0.1 | Y (Y = 50 to <850) | – | – | – | C[C@H](NC(=O)c1c(N)nn2cccnc12)c1cc2cccc(C#Cc3cnn(C)c3)c2c(=O)n1CCS(=O)(=O)N(C)C [Compound 104]
